# Measurements from US7524880B2, “Crystalline form of a substituted pyrrolidine compound” (Theravance, Inc., priority 2004, dated 2009).
# Assays:
# [1] = test system: ACh-induced bronchoconstriction; assay: Duration of bronchoprotection in guinea pig model of acetylcholine-induced bronchoconstriction; assay type: in vivo; conditions: inhalation, 1.5 hours post-dose
# Procedure: Groups of six male guinea pigs (Duncan-Hartley (HsdPoc:DH) Harlan, Madison, Wis.) weighing between 250 and 350 g were individually identified by cage cards. Throughout the study animals were allowed access to food and water ad libitum.
# The test compound was administered via inhalation over 10 minutes in a whole-body exposure dosing chamber (R&S Molds, San Carlos, Calif.). The dosing chambers were arranged so that an aerosol was simultaneously delivered to 6 individual chambers from a central manifold. Guinea pigs were exposed to an aerosol of a test compound or vehicle (WFI). […] This was measured gravimetrically by comparing pre-and post-nebulization weights of the filled nebulizer.
# The bronchoprotective effects of a test compound administered via inhalation were evaluated using whole body plethysmography at 1.5, 24, 48 and 72 hours post-dose.
# Forty-five minutes prior to the start of the pulmonary evaluation, each guinea pig was anesthetized with an intramuscular injection of ketamine (43.75 mg/kg), xylazine (3.50 mg/kg) and acepromazine (1.05 mg/kg). […] The depth of anesthesia was monitored and adjusted if the animal responded to pinching of its paw or if the respiration rate was greater than 100 breaths/minute. […]
# Starting this program initiated the experimental protocol and data collection. […] By integrating this signal over time, a measurement of flow was calculated for each breath. […]
# [2] = test system: pilocarpine-evoked salivation; assay: Inhalation guinea pig salivation assay; assay type: in vivo
# Procedure: Guinea pigs (Charles River, Wilmington, Mass.) weighing 200-350 g were acclimated to the in-house guinea pig colony for at least 3 days following arrival. Test compound or vehicle were dosed via inhalation (IH) over a 10 minute time period in a pie shaped dosing chamber (R+S Molds, San Carlos, Calif.). Test solutions were dissolved in sterile water and delivered using a nebulizer filled with 5.0 mL of dosing solution. Guinea pigs were restrained in the inhalation chamber for 30 minutes. During this time, guinea pigs were restricted to an area of approximately 110 cm^2. This space was adequate for the animals to turn freely, reposition themselves, and allow for grooming. […] Upon completion of nebulization, guinea pigs were evaluated at 1.5, 6, 12, 24, 48, or 72 hrs after treatment.
# Guinea pigs were anesthetized one hour before testing with an intramuscular (IM) injection of a mixture of ketamine 43.75 mg/kg, xylazine 3.5 mg/kg, and acepromazine 1.05 mg/kg at an 0.88 mL/kg volume. […] Saliva was collected for 10 minutes, at which point the gauze pad was weighed and the difference in weight recorded to determine the amount of accumulated saliva (in mg). The mean amount of saliva collected for animals receiving the vehicle and each dose of test compound was calculated. […] Results were calculated using result means (n=3 or greater). […]
structure (smiles),measurement,setting,value
"CNCCCCCCCCN1CC[C@@H](C(C(N)=O)(c2ccccc2)c2ccccc2)C1 [compound of formula I, 2-[(S)-1-(8-methylaminooctyl)pyrrolidin-3-yl]-2,2-diphenylacetamide]",PD2(50) for ACh-induced bronchoconstriction,[1],less than 200 μg/mL
same,apparent lung selectivity index (ratio of anti-sialagogue ID50 to bronchoprotective ID50),[2],greater than 5
